Key:
[1] = test system: Loblolly pine megagametophytes; assay: Loblolly pine extrusion and initiation on solid media #1042 (no ABA) with brassinolide, eight weeks; format: cell-based
Method: The promotion of extrusion and initiation in Example 4 was obtained on media containing both brassinolide and abscisic acid (ABA). ABA is known in the art to enhance initiation. This experiment was conducted to determine if brassinolide will promote initiation independently of ABA. The explants were megagametophytes from summer cone collections from four individual trees, each representing a distinct genotype. The seeds contained Stage 2-4 zygotic embryos. Megagametophytes were excised from sterilized seeds, as described in Example 4.
The control media was solid media #1042, which contains no ABA or brassinolide (Table 47). Treatment media were composed of #1042 plus 0, 0.025, 0.10 or 0.25 μM brassinolide (Table 13). While still liquid, 2 ml media was poured into wells on a culture well plate and allowed to solidify. […] Each replication consisted of ten megagametophytes in adjacent wells on a single well plate. Plates were wrapped with PARAFILM and incubated at 23-24° C. in the dark.
Both extrusion (Table 14) and initiation (Table 15) frequencies were higher in the brassinolide treatments than in the control. There was no clear brassinolide concentration effect within the tested range. […] One of skill in the art can empirically determine the optimal effective upper and lower brassinolide concentration limits for solid media.

[2] = test system: Loblolly pine megagametophytes; assay: Loblolly pine extrusion and initiation on solid media #945 with brassinolide, eight weeks; format: cell-based
Method: In each replicate set of ten explants, the frequency of extrusion was measured as the number of extrusions per ten megagametophytes. A successful extrusion was scored where a filamentous mass of tissue that had emerged from the megagametophyte was clearly visible. Initiation was also scored at the end of the 8th week. In each replicate set of ten explants, the frequency of initiation was recorded as the number of successful initiations out of the ten megagametophytes. A successful initiation was scored where the extruded tissue had clearly proliferated and at least one somatic embryo was visible. Often, visualization was aided by the fact that the zygotic tissue was brownish while new somatic embryos were whitish and translucent. Also, somatic embryos could often be seen growing directly from zygotic embryos.
This experiment measured the effects of varying concentrations of brassinolide on extrusion and initiation in Loblolly pine. The explants in this experiment were megagametophytes isolated from cone collections from four open-pollinated trees, representing a multiplicity of genotypes. The seeds contained Stage 2-4 zygotic embryos. Seeds were sterilized as described in Example 1. Seed coats were split and the megagametophytes were isolated by removing integuments and nucellus. Isolated megagametophytes were placed on solid media. […] The treatment media consisted of media #945 with added brassinolide varying from 0.005 to 0.1 μM (Table 10). The experiment consisted of three replications per treatment, per genotype.
Initiation frequency was increased by the addition of brassinolide at all concentrations (Table 12). There was no clear concentration effect within the tested range. […] One of skill in the art could empirically determine the upper and lower effective concentration of brassinolide which is effective in promoting initiation.

## CC(C)[C@H](C)[C@@H](O)[C@H](O)[C@@H](C)[C@H]1CC[C@H]2[C@@H]3COC(=O)[C@H]4C[C@H](O)[C@H](O)C[C@]4(C)[C@H]3CC[C@]12C [brassinolide]
[1]; 0.025, 0.10 or 0.25 μM brassinolide, absence of ABA
  extrusion and initiation frequencies vs control: higher
[1]; genotype 5-1207, 0.025 μM Br
  % of Megagametophytes Extruding: 38.3 (15.9) %
  % of Megagametophytes Initiating: 27.5 (16.3) %
[1]; genotype 5-1207, 0.10 μM Br
  % of Megagametophytes Extruding: 30.0 (13.3) %
  % of Megagametophytes Initiating: 20 (15.3) %
[1]; genotype 5-1207, 0.25 μM Br
  % of Megagametophytes Extruding: 20.0 (10.0) %
  % of Megagametophytes Initiating: 16.7 (8.8) %
[1]; genotype 7-1051, 0.025 μM Br
  % of Megagametophytes Extruding: 43.3 (8.8) %
  % of Megagametophytes Initiating: 20 (20.0) %
[1]; genotype 7-1051, 0.10 μM Br
  % of Megagametophytes Extruding: 46.7 (13.3) %
  % of Megagametophytes Initiating: 26.7 (8.8) %
[1]; genotype 7-1051, 0.25 μM Br
  % of Megagametophytes Extruding: 53.3 (12.0) %
  % of Megagametophytes Initiating: 16.7 (8.8) %
[1]; genotype 11-1055, 0.025 μM Br
  % of Megagametophytes Extruding: 66.7 (3.3) %
  % of Megagametophytes Initiating: 53.3 (6.7) %
[1]; genotype 11-1055, 0.10 μM Br
  % of Megagametophytes Extruding: 63.3 (13.3) %
  % of Megagametophytes Initiating: 46.7 (14.5) %
[1]; genotype 11-1055, 0.25 μM Br
  % of Megagametophytes Extruding: 70.0 (11.5) %
  % of Megagametophytes Initiating: 53.3 (8.8) %
[1]; genotype 11-1507, 0.025 μM Br
  % of Megagametophytes Extruding: 26.7 (6.7) %
  % of Megagametophytes Initiating: 13.3 (3.3) %
[1]; genotype 11-1507, 0.10 μM Br
  % of Megagametophytes Extruding: 36.7 (3.3) %
  % of Megagametophytes Initiating: 16.7 (8.8) %
[1]; genotype 11-1507, 0.25 μM Br
  % of Megagametophytes Extruding: 23.3 (3.3) %
  % of Megagametophytes Initiating: 13.3 (3.3) %
[1]; total, 0.025 μM Br
  % of Megagametophytes Extruding: 43.8%
  % of Megagametophytes Initiating: 28.5%
[1]; total, 0.10 μM Br
  % of Megagametophytes Extruding: 44.2%
  % of Megagametophytes Initiating: 27.5%
[1]; total, 0.25 μM Br
  % of Megagametophytes Extruding: 41.7%
  % of Megagametophytes Initiating: 25.0%
[2]; brassinolide at all concentrations (0.005 to 0.1 μM)
  Initiation frequency vs control: increased
[2]; genotype FC, 0.005 μM Br
  % of Megagametophytes Extruding: 40.0 (5.8) %
  % of Megagametophytes Initiating: 0 (0) %
[2]; genotype FC, 0.01 μM Br
  % of Megagametophytes Extruding: 20.0 (5.8) %
  % of Megagametophytes Initiating: 6.7 (3.3) %
[2]; genotype FC, 0.025 μM Br
  % of Megagametophytes Extruding: 40.0 (5.8) %
  % of Megagametophytes Initiating: 0 (0) %
[2]; genotype FC, 0.05 μM Br
  % of Megagametophytes Extruding: 26.7 (3.3) %
  % of Megagametophytes Initiating: 0 (0) %
[2]; genotype FC, 0.1 μM Br
  % of Megagametophytes Extruding: 31.8 (16.5) %
  % of Megagametophytes Initiating: 3.7 (3.7) %
[2]; genotype FT, 0.005 μM Br
  % of Megagametophytes Extruding: 96.7 (3.3) %
  % of Megagametophytes Initiating: 53.3 (12.0) %
[2]; genotype FT, 0.01 μM Br
  % of Megagametophytes Extruding: 86.7 (8.8) %
  % of Megagametophytes Initiating: 43.3 (16.7) %
[2]; genotype FT, 0.025 μM Br
  % of Megagametophytes Extruding: 93.3 (6.7) %
  % of Megagametophytes Initiating: 46.7 (12.0) %
[2]; genotype FT, 0.05 μM Br
  % of Megagametophytes Extruding: 93.3 (3.3) %
  % of Megagametophytes Initiating: 53.3 (8.8) %
[2]; genotype FT, 0.1 μM Br
  % of Megagametophytes Extruding: 86.7 (3.3) %
  % of Megagametophytes Initiating: 50 (3.3) %
[2]; genotype FW, 0.005 μM Br
  % of Megagametophytes Extruding: 83.3 (8.8) %
  % of Megagametophytes Initiating: 20 (5.8) %
[2]; genotype FW, 0.01 μM Br
  % of Megagametophytes Extruding: 50.0 (10.0) %
  % of Megagametophytes Initiating: 3.3 (3.3) %
[2]; genotype FW, 0.025 μM Br
  % of Megagametophytes Extruding: 64.8 (13.4) %
  % of Megagametophytes Initiating: 20.7 (11.6) %
[2]; genotype FW, 0.05 μM Br
  % of Megagametophytes Extruding: 70.0 (11.5) %
  % of Megagametophytes Initiating: 13.3 (8.8) %
[2]; genotype FW, 0.1 μM Br
  % of Megagametophytes Extruding: 73.3 (8.8) %
  % of Megagametophytes Initiating: 30 (5.8) %
[2]; genotype FX, 0.005 μM Br
  % of Megagametophytes Extruding: 53.3 (8.8) %
  % of Megagametophytes Initiating: 26.7 (8.8) %
[2]; genotype FX, 0.01 μM Br
  % of Megagametophytes Extruding: 63.3 (14.5) %
  % of Megagametophytes Initiating: 33.3 (12.0) %
[2]; genotype FX, 0.025 μM Br
  % of Megagametophytes Extruding: 70.0 (5.8) %
  % of Megagametophytes Initiating: 23.3 (3.3) %
[2]; genotype FX, 0.05 μM Br
  % of Megagametophytes Extruding: 73.3 (8.8) %
  % of Megagametophytes Initiating: 43.3 (6.7) %
[2]; genotype FX, 0.1 μM Br
  % of Megagametophytes Extruding: 76.7 (8.8) %
  % of Megagametophytes Initiating: 36.7 (8.8) %
[2]; in our media
  concentrations at which brassinolide was effectively used: 0.005 to 0.25 µM
[2]; total, 0.005 μM Br
  % of Megagametophytes Extruding: 68.3%
  % of Megagametophytes Initiating: 25.0%
[2]; total, 0.01 μM Br
  % of Megagametophytes Extruding: 55.0%
  % of Megagametophytes Initiating: 21.7%
[2]; total, 0.025 μM Br
  % of Megagametophytes Extruding: 67.0%
  % of Megagametophytes Initiating: 22.7%
[2]; total, 0.05 μM Br
  % of Megagametophytes Extruding: 65.8%
  % of Megagametophytes Initiating: 27.5%
[2]; total, 0.1 μM Br
  % of Megagametophytes Extruding: 67.1%
  % of Megagametophytes Initiating: 30.1%

Source: patent publication US6492174B1, “Methods of initiating embryogenic cultures in plants” (Institute of Paper Science & Technology, priority 2000, dated 2002)
